Measured values published in patent publication US20110082171A1, “Medicaments and Methods for Inhibition of Scarring” (Renovo Limited, priority 2008, published 2011).
pEC50: −log10 of the molar value. Entries after “also recorded” stand apart in the source; their conditions may differ. Structures can show the parent of a compound that is named as a salt.

What was measured:
[1] = tested on: scarring resulting from full thickness cutaneous incisional wounds; assay: Rat incisional wound scarring model, macroscopic VAS assessment of scars; assay type: in vivo, male Sprague Dawley rats; conditions: day 70 post-wounding
Description: (§1) The GABAA receptor agonist Gaboxadol hydrochloride (Sigma Aldrich, catalogue number T101) was diluted in phosphate buffered saline (PBS) to produce medicaments of the invention having the following concentrations:
(§2) i) 1.76 ng/100 μL (a concentration of 0.1 μM, in which each […] of the medicament provides 10 pmoles of Gaboxadol hydrochloride); ii) 1.76 μg/100 μL (a concentration of 100 μM, in which each 100 μl of the medicament provides 10 nmoles of Gaboxadol hydrochloride); and iii) 8.83 μg/100 μL (a concentration of 500 μM, in which each 100 μl of the medicament provides 50 nmoles of Gaboxadol hydrochloride).
(§3) At day 0, male Sprague Dawley rats (200-250 g) were anaesthetised, shaved and wound sites were marked according to a template in which two wounds, each 1 cm in length, were made at sites 5 cm from the base of the skull and 1 cm from the midline on the back of each rat.
(§4) One hundred microlitres of either one of the medicaments of the invention (comprising either 0.1 μM, 100 μM or 500 μM Gaboxadol hydrochloride in phosphate buffered saline pH 7.2—purchased from GIBCO BRL, Cat. # 20012-019), or placebo (PBS only) was injected intradermally at the wound sites. The intradermal injections caused the formation of a raised bleb, which was then immediately incised to form 1 cm long experimental wounds.
(§5) All treated or diluent control wounds were re-injected again 1 day post-wounding with the appropriate treatment (drug or placebo) via injection of 50 μl to each of the two margins of the 1 cm wound. All wounds were all harvested at day 70 post-wounding.
The wounds were photographed after wounding, prior to re-injection on day 1 and on day of harvest. The scars were assessed using a visual analogue scale (VAS) consisting of a 0-10 cm line representing a scale, from left to right, of 0 (corresponding to normal skin) to 10 (indicative of a bad scar).

[2] = tested on: scarring resulting from full thickness cutaneous incisional wounds; assay: Rat incisional wound scarring model, microscopic assessment of scars (Masson's trichrome); assay type: in vivo, male Sprague Dawley rats; conditions: day 70 post-wounding
Description: as §1, §2, §3, §4, §5
For microscopic assessment the scars were excised from the experimental rats (incorporating a small amount of surrounding normal tissue) and fixed in 10% (v/v) buffered formal saline. The fixed tissue was then processed for wax histology, stained using Masson's trichrome, and scarring in the regenerated dermis was assessed.

[3] = biological target: GABAA receptors containing α4β3δ subunits (Homo sapiens, UniProt P28472+P48169); conditions: Brown et al. 2002, cited from earlier work
[4] = tested on: GABAA receptor; conditions: relative to GABA; cited from earlier work

Chain of GABAA receptors containing α4β3δ subunits (P48169 36-554): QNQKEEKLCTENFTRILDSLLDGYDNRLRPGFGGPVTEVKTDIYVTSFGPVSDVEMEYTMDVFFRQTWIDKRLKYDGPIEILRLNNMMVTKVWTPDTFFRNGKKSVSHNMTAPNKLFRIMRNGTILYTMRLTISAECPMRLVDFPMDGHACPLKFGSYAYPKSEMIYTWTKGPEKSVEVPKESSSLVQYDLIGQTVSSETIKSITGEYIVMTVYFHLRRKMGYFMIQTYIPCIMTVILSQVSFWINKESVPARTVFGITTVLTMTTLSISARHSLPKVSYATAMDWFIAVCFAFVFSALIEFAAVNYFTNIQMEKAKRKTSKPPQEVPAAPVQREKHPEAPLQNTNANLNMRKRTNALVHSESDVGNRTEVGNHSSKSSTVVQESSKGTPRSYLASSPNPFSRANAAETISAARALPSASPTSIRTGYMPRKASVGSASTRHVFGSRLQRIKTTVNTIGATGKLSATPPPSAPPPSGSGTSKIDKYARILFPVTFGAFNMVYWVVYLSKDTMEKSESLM
Chain of GABAA receptors containing α4β3δ subunits (P28472 26-473): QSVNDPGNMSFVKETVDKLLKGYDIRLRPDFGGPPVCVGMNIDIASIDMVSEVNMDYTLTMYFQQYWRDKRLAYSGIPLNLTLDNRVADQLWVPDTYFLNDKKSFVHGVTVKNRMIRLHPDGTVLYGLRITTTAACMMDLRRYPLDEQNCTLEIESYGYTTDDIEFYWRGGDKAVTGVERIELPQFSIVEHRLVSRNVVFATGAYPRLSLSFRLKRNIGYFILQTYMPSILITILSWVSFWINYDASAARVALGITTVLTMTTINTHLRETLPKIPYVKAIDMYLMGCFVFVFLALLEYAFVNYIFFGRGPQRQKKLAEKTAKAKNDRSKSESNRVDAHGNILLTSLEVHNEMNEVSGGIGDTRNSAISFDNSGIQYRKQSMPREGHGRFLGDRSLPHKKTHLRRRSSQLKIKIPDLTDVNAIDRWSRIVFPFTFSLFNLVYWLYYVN
Chain of GABAA receptors containing α4β3δ subunits (O14764 25-452 partner): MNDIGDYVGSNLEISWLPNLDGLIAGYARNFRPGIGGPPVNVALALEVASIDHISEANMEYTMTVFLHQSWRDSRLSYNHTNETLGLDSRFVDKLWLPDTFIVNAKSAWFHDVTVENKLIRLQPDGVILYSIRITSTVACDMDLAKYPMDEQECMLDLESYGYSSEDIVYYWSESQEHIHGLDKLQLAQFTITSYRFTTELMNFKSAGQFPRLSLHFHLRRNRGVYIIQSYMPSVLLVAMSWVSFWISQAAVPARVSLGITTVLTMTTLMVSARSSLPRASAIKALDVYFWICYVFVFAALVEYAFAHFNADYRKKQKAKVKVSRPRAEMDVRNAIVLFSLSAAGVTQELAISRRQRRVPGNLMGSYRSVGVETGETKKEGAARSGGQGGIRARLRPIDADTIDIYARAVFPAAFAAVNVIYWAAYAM

Oc1noc2c1CCNC2 [Gaboxadol hydrochloride]
macroscopic appearance of scars (VAS) versus diluent control ([1]; 0.1 μM solution in PBS, two intradermal injections of 100 μl (1.76 ng per centimetre each)): improved the macroscopic appearance of scars; also recorded: statistically significant inhibition of scarring
macroscopic appearance of scars (VAS) versus diluent control ([1]; 100 μM solution in PBS, two intradermal injections of 100 μl (1.76 μg per centimetre each)): improved the macroscopic appearance of scars; also recorded: trend towards scar reduction
macroscopic appearance of scars (VAS) versus diluent control ([1]; 500 μM solution in PBS, two intradermal injections of 100 μl (8.83 μg per centimetre each)): improved the macroscopic appearance of scars
scarring assessed microscopically ([2]; 0.1 μM solution in PBS): reduction of scarring
scarring assessed microscopically ([2]; 100 μM solution in PBS): reduction of scarring
scarring assessed microscopically ([2]; 500 μM solution in PBS): reduction of scarring

Oc1noc2c1CCNC2 [Gaboxadol, 4,5,6,7-tetrahydroisoxazolo[5,4-c]pyridine-3-ol]
pEC50 [3]: 5.22
maximum response (% of that of GABA) ([3]; relative to GABA): 163%
affinity for GABAA receptors compared with GABA (in words) [4]: affinity higher than that of GABA itself

NCc1cc(=O)[nH]o1 [Muscimol, muscimol]
affinity at the GABAA receptor, greater than GABA [4]: 10 fold
